# Source: the SangsterLogP compilation
row,logP,Compound
1,3.27,COc1cc(Cl)ccc1Cl
2,5.26,COc1c(Cl)c(Cl)c(Br)c(Cl)c1Cl
3,4.39,COc1cc(Cl)cc(Cl)c1Br
4,4.33,COc1c(Br)cc(Cl)cc1Br
5,3.44,COc1c(Cl)cccc1Br
6,4,COc1c(Cl)cc(Cl)cc1Br
7,3.15,COc1ccc(Br)cc1
8,4.47,COc1ccc(Br)c(Cl)c1Cl
9,3.77,COc1ccc(Br)cc1Cl
10,3.42,COc1c(Br)cccc1Br
11,4.05,COc1cc(Cl)cc(Cl)c1Cl
12,4.66,COc1c(Cl)c(Cl)cc(Br)c1Cl
13,5.16,COc1c(Cl)c(Cl)c(Cl)c(Cl)c1Cl
14,4.47,COc1c(Br)ccc(Cl)c1Cl
15,3.23,COc1cccc(Br)c1
16,4.66,COc1c(Cl)cc(Br)c(Cl)c1Cl
17,5.29,COc1cc(Cl)c(Br)c(Cl)c1Br
18,5.29,COc1c(Br)cc(Br)c(Cl)c1Br

# Further lines, the compound ahead of its results:
row,Compound,logP
1,COc1cc(Br)c(Cl)cc1Cl,4.47
2,COc1c(Cl)cccc1Cl,3.19
3,COc1ccc(Br)cc1Br,3.75
4,COc1c(Br)c(Cl)c(Cl)c(Cl)c1Br,5.55
5,COc1ccccc1Cl,2.72
6,COc1c(Br)cc(Cl)c(Cl)c1Cl,4.64
7,COc1ccc(Cl)c(Cl)c1,3.55
8,COc1cccc(Cl)c1Cl,3.3
9,COc1ccccc1Br,2.87
10,COc1c(Br)c(Br)c(Br)c(Br)c1Br,5.43
11,COc1c(Br)cc(Br)c(Cl)c1Cl,4.97
12,COc1cc(Cl)c(Cl)cc1Cl,3.95
13,COc1ccc(Cl)cc1Br,3.59
14,COc1c(Cl)ccc(Cl)c1Cl,3.76
15,COc1ccc(Cl)cc1Cl,3.46
16,COc1cc(Cl)c(Cl)c(Cl)c1Br,4.97
17,COc1cc(Cl)c(Br)c(Cl)c1,4.39
18,COc1c(Cl)c(Cl)cc(Br)c1Br,5.29
19,COc1c(Cl)cc(Br)cc1Cl,4.02
20,COc1cc(Cl)c(Cl)c(Cl)c1Cl,4.57
